Test [1] deals with β-lactamase producing strains of H. influenzae. Description: MIC in agar, serial dilution, alone or with constant clavulanic acid. The test is classed as cell-based. Here is the method:
(§1) Determinations of the minimum inhibitory concentration (MIC) were performed in agar using serial dilutions of the test compounds alone or in the presence of constant concentrations of clavulanic acid (2 or 4 μg/ml). The agar used was Mueller Hinton (BBL) supplemented with 5% lysed horse blood in the case of H. influenzae and M. catarrhalis, except for B. fragilis where Wilkins-Chalgren agar (Oxoid) was used. A multipoint inoculator was used to drop 1 μl of undiluted culture of S. aureus, 10-fold dilutions of B. fragilis, H. influenzae and M. catarrhalis and 100-fold dilutions of E. coli and K. pneumoniae onto the surface of the agar, to give an inoculum of approximately 10^4 to 10^5 cfu/spot.

Test [2] deals with β-lactamase producing strains of S. aureus. The test is described as above. The test is classed as cell-based. Here is the method:
as §1

Test [3] has as its system β-lactamase producing strains of M. catarrhalis. The description is as above. The test is classed as cell-based, Moraxella catarrhalis. Here is the method:
as §1

The test system of the next test is B. fragilis. In words: MIC in agar (Wilkins-Chalgren), serial dilution, alone or with constant clavulanic acid. The test is classed as cell-based, Bacteroides fragilis. Here is the method: as §1
Test [4] deals with plasmid mediated β-lactamase producing strains of K. pneumoniae. In words: MIC in agar, serial dilution, alone or with constant clavulanic acid. It counts as cell-based, Klebsiella pneumoniae. On the procedure:
as §1

Test [5] deals with plasmid mediated β-lactamase producing strains of E. coli. The description is as above. The test is classed as cell-based, Escherichia coli. Here is the method: as §1
The mark [6] stands for this setting: clavulanic acid at 2 or 4 μg/ml.
The mark [7] stands for this setting: Gmean MIC values reduced considerably.

Like-named read-outs stand apart in the source and are kept apart here.

Regarding `N[C@@H](C(=O)N[C@@H]1C(=O)N2C(C(=O)O)=C(Cl)CS[C@H]12)c1ccccc1` [cefaclor], the MIC range in test [1] (H.influenzae (15 strains), CA2/CA4 = constant 2 or 4 μg/ml clavulanic acid) lay within 2 to 16 µg/mL; in test [2] (S.aureus P+ (10 strains), CA2/CA4 = constant 2 or 4 μg/ml clavulanic acid) it was 1 to 256 µg/mL; in test [3] (M.catarrhalis (14 strains), CA2/CA4 = constant 2 or 4 μg/ml clavulanic acid), 1 to 8 µg/mL; in the test on B. fragilis (B.fragilis (19 strains), CA2/CA4 = constant 2 or 4 μg/ml clavulanic acid), 64 to 512 µg/mL; in test [5] (E.coli R+ (11 strains), CA2/CA4 = constant 2 or 4 μg/ml clavulanic acid), 1 to 32 µg/mL. In addition, the MIC90 was determined as 16 µg/mL in test [1] (Haemophilus influenzae, H.influenzae (15 strains), CA2/CA4 = constant 2 or 4 μg/ml clavulanic acid); 64 µg/mL in test [2] (Staphylococcus aureus, S.aureus P+ (10 strains), CA2/CA4 = constant 2 or 4 μg/ml clavulanic acid); 8 µg/mL in test [3] (Moraxella catarrhalis, M.catarrhalis (14 strains), CA2/CA4 = constant 2 or 4 μg/ml clavulanic acid); 128 µg/mL in the test on B. fragilis (Bacteroides fragilis, B.fragilis (19 strains), CA2/CA4 = constant 2 or 4 μg/ml clavulanic acid); 256 µg/mL in test [4] (Klebsiella pneumoniae); 32 µg/mL in test [5] (Escherichia coli). Moreover, the MIC in test [1] (Haemophilus influenzae, H.influenzae (15 strains), CA2/CA4 = constant 2 or 4 μg/ml clavulanic acid, read-out: Gmean (geometric mean MIC)) turned out to be 7.64 µg/mL; in test [1] (Haemophilus influenzae, H.influenzae (15 strains), CA2/CA4 = constant 2 or 4 μg/ml clavulanic acid, read-out: MIC75), 16 µg/mL; in test [2] (Staphylococcus aureus, S.aureus P+ (10 strains), CA2/CA4 = constant 2 or 4 μg/ml clavulanic acid, read-out: Gmean (geometric mean MIC)) it was 12.4 µg/mL; in test [2] (Staphylococcus aureus, S.aureus P+ (10 strains), CA2/CA4 = constant 2 or 4 μg/ml clavulanic acid, read-out: MIC75) it was 32 µg/mL; in test [2] (Staphylococcus aureus, in the presence of 2 μg/ml clavulanic acid, read-out: geometric mean (Gmean) MIC of cefaclor), 1.13 µg/mL; in test [2] (Staphylococcus aureus, in the presence of 4 μg/ml clavulanic acid, read-out: geometric mean (Gmean) MIC of cefaclor), 0.73 µg/mL. For the same compound, the MIC in test [3] (Moraxella catarrhalis, M.catarrhalis (14 strains), CA2/CA4 = constant 2 or 4 μg/ml clavulanic acid, read-out: Gmean (geometric mean MIC)) worked out at 4.88 µg/mL; in test [3] (Moraxella catarrhalis, M.catarrhalis (14 strains), CA2/CA4 = constant 2 or 4 μg/ml clavulanic acid, read-out: MIC75), 8 µg/mL; in the test with B. fragilis (Bacteroides fragilis, B.fragilis (19 strains), CA2/CA4 = constant 2 or 4 μg/ml clavulanic acid, read-out: Gmean (geometric mean MIC)) it was 151 µg/mL; in the test with B. fragilis (Bacteroides fragilis, B.fragilis (19 strains), CA2/CA4 = constant 2 or 4 μg/ml clavulanic acid, read-out: MIC75), 4 µg/mL; in test [4] (Klebsiella pneumoniae, read-out: Gmean (geometric mean MIC)), 17.7 µg/mL; in test [4] (Klebsiella pneumoniae, read-out: MIC75), 256 µg/mL. Moreover, the MIC worked out at 4.32 µg/mL in test [5] (Escherichia coli, read-out: Gmean (geometric mean MIC)) and 4 µg/mL in test [5] (Escherichia coli, read-out: MIC75).
On to `O=C(O)[C@H]1/C(=C/CO)O[C@@H]2CC(=O)N21` [clavulanic acid], for which the “effect of clavulanic acid on the activity of cefaclor” value in test [1] (setting [6]) is on record as “improved the activity of cefaclor”; in test [2] (2 and 4 μg/ml clavulanic acid) it was “markedly improved the activity of cefaclor”; in test [3] (setting [6]), “improved the activity of cefaclor”; with B. fragilis (setting [6]), “improved the activity of cefaclor”; in test [4] (setting [7]), “improved”; in test [5] (setting [7]) it was “improved”.

Source of the values: US20030109503A1, “Pharmaceutical formulations comprising clavulanic acid alone or in combination with other beta-lactam antibiotics” (SmithKline Beecham p.l.c., priority 1995, published 2003).
